Among the data in patent US20230348426A1, “OXOPYRROLIDINE FPR2 AGONISTS” (Bristol-Myers Squibb Company, priority 2020, published 2023) are EC50 values, retold here.

Structures are written as SMILES. Where only a bound is given, the exact number is not on record here.

The target in test [1] is human FPR2 (Homo sapiens (Human), UniProt P25090). In words: FPR2 cyclic adenosine monophosphate (cAMP) assay. In kind it is cell-based. Particulars: CHO cells overexpressing human FPR2; forskolin 5 µM; inhibition of cAMP production; read-out: hFPR2 cAMP2 EC50. The method in brief: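 CHO cells overexpressing human FPR2 (2,000/well) incubated 30 min at room temperature with compound (0.020 nM–100 µM, 1% DMSO), 5 µM forskolin and 200 µM IBMX.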
Sequence of human FPR2 (P25090 whole entry): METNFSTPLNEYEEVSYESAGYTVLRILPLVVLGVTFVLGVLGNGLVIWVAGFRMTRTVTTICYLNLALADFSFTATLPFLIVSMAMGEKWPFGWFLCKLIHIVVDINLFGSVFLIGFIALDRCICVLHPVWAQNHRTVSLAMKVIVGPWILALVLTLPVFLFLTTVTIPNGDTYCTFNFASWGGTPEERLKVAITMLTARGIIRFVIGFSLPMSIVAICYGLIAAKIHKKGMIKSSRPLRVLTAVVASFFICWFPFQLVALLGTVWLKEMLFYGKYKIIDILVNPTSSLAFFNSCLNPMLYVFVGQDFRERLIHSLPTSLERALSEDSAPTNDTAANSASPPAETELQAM
(Cyclic AMP is a second messenger, typically raised through Gs and lowered through Gi signalling.)

Test [2] addresses human FPR1 (Homo sapiens (Human), UniProt P21462). In words: FPR1 cyclic adenosine monophosphate (cAMP) assay. The test is classed as cell-based. As to conditions: CHO cells overexpressing human FPR1; forskolin 10 µM; inhibition of cAMP production; read-out: hFPR1 cAMP EC50. The method in brief: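 CHO cells overexpressing human FPR1 (4,000 cells/well) stimulated with 10 µM forskolin plus 200 µM IBMX in the presence of compound (0.020 nM–100 µM, 1% DMSO), 30 min at room temperature. Intracellular cAMP measured by HTRF. Inhibition of cAMP production fitted to a 4-parameter logistic equation.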

Sequence of human FPR1 (P21462 whole entry): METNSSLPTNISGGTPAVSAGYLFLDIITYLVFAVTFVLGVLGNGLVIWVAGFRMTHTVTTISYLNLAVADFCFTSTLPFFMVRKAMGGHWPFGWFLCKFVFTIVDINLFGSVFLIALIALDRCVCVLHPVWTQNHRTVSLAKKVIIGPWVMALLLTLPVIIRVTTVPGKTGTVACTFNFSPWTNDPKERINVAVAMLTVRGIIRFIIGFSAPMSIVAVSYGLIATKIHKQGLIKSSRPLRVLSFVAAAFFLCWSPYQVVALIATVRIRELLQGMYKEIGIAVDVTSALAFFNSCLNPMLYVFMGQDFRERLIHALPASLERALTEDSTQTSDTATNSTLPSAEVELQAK

A word on the EC50: it is the midpoint of the concentration-response curve. Turning to `COCC(CO)n1cccc(N2C(=O)[C@@H](NC(=O)c3ccc(OC(F)F)cc3)[C@H](c3c(F)cc(OC)cc3F)[C@@H]2C)c1=O` (some centres unmarked) [Example 217], the EC50 amounted to 5.7 nM in test [1] and 42 nM in test [2].

`COc1cc(F)c([C@@H]2CN(c3cccn(CC(C)(CO)CO)c3=O)C(=O)[C@H]2NC(=O)c2ccc(OC(F)F)cc2)c(F)c1` [Example 218]: the EC50 in test [1] was 5.7 nM; in test [2], 140 nM.

On to `COc1cc(F)c([C@@H]2CN(c3cccn(CCO)c3=O)C(=O)[C@H]2NC(=O)c2ccc(OC(F)F)cc2)c(F)c1` [Example 219], for which the EC50 in test [1] turned out to be 5.8 nM; in test [2] it was 140 nM.

Regarding `COCCn1cccc(N2C(=O)[C@@H](NC(=O)c3ccc(Cl)cc3)[C@H](c3c(F)cc(OC)cc3F)[C@H]2C)c1=O` [Example 220], the figures for the EC50 in test [1] and in test [2] were 5.8 nM and 990 nM, respectively.

For the compound `COc1cc(F)c([C@@H]2CN(c3cccn(CCF)c3=O)C(=O)[C@H]2NC(=O)c2ccc(OC(F)(F)F)cc2)c(F)c1` [Example 221], the EC50 in test [1] was determined as 6 nM; in test [2], 50 nM.

For the compound `COc1cc(F)c([C@@H]2CN(c3nc(N4CC5(COC5)C4)ccc3OC)C(=O)[C@H]2NC(=O)c2ccc(OC(F)F)cc2)c(F)c1` [Example 223], the EC50 turned out to be 6.1 nM in test [1] and 100 nM in test [2].

On to `COc1cc(F)c([C@@H]2CN(c3nccc(N4CCN(S(C)(=O)=O)CC4)c3C(F)(F)F)C(=O)[C@H]2NC(=O)c2ccc(Cl)cc2)c(F)c1` [Example 224], for which the EC50 in test [1] turned out to be 6.1 nM; in test [2], 1900 nM.

With `COc1cc(F)c([C@@H]2CN(c3nc(N4C[C@@H](C)N(C)[C@@H](C)C4)ccc3OC)C(=O)[C@H]2NC(=O)c2ccc(OC(F)F)cc2)c(F)c1` [Example 225], the EC50 in test [1] amounted to 6.2 nM; in test [2], 630 nM.

As for `CCn1cccc(N2C[C@@H](c3ccc(OC)cc3F)[C@H](NC(=O)c3ccc(OC(F)F)cc3)C2=O)c1=O` [Example 226], the EC50 in test [1] worked out at 6.2 nM; in test [2] it was 23 nM.

With `COc1cc(F)c([C@@H]2CN(c3ccc(CO)n(C)c3=O)C(=O)[C@H]2NC(=O)c2ccc(OC(F)(F)F)cc2)c(F)c1` [Example 227], the EC50 in test [1] was determined as 6.2 nM; in test [2] it was 240 nM.

In the case of `CCn1ccc(C)c(N2C[C@@H](c3c(F)cc(OC)cc3F)[C@H](NC(=O)c3ccc(OC(F)(F)F)cc3)C2=O)c1=O` [Example 228], the EC50 in test [1] came to 6.2 nM; in test [2], 1.2 nM.

In the case of `CCn1cc(F)cc(N2C[C@@H](c3c(F)cc(OC)cc3F)[C@H](NC(=O)c3ccc(OC(F)(F)F)cc3)C2=O)c1=O` [Example 230], the figures for the EC50 in test [1] and in test [2] were 6.2 nM and 88 nM, respectively.

`COCCn1ccc(C)c(N2C[C@@H](c3c(F)cc(OC)cc3F)[C@H](NC(=O)c3ccc(OC(F)F)cc3)C2=O)c1=O` [Example 232]: the EC50 in test [1] is 6.3 nM; in test [2], 3.2 nM.

In the case of `COc1cc(N2CCN(C)CC2)nc(N2C[C@@H](c3c(F)cc(OC)cc3F)[C@H](NC(=O)c3ccc(Cl)cc3)C2=O)c1` [Example 233], the EC50 in test [1] was 6.3 nM; in test [2], over 5000 nM.

On to `COc1cc(F)c([C@@H]2CN(c3nccc(NCC(C)O)c3C(F)(F)F)C(=O)[C@H]2NC(=O)c2ccc(OC(F)F)cc2)c(F)c1` (some centres unmarked) [Example 234], for which the EC50 in test [1] was 6.3 nM; in test [2] it was 1100 nM.

With `COc1cc(F)c([C@@H]2CN(c3cccnc3OC3CCOC3)C(=O)[C@H]2NC(=O)c2ccc(OC(F)(F)F)cc2)c(F)c1` (some centres unmarked) [Example 235], the EC50 in test [1] came to 6.5 nM; in test [2], 84 nM.

In the case of `O=C(N[C@@H]1C(=O)N(c2cccn(CC(F)F)c2=O)C[C@H]1c1ccc(Cl)cc1)c1ccc(OC(F)F)cc1` [Example 236], the EC50 stood at 6.5 nM in test [1] and 30 nM in test [2].

`COc1cc(F)c([C@@H]2CN(c3cc(C(F)(F)F)cn(C)c3=O)C(=O)[C@H]2NC(=O)c2ccc(Cl)cc2)c(F)c1` [Example 238]: the EC50 in test [1] came to 6.6 nM; in test [2], 1500 nM.

Regarding `COc1cc(F)c([C@@H]2CN(c3nccc(NCC(C)(C)O)c3C(F)(F)F)C(=O)[C@H]2NC(=O)c2ccc(OC(F)F)cc2)c(F)c1` [Example 239], the EC50 in test [1] was found to be 6.6 nM; in test [2], 650 nM.

`COc1cc(F)c([C@@H]2CN(c3ccc(CO)[nH]c3=O)C(=O)[C@H]2NC(=O)c2ccc(OC(F)(F)F)cc2)c(F)c1` [Example 240]: the EC50 in test [1] came to 6.6 nM; in test [2], 130 nM.

Regarding `COc1cc(F)c([C@@H]2CN(c3cccn(CCC(F)(F)F)c3=O)C(=O)[C@H]2NC(=O)c2ccc(OC(F)F)cc2)c(F)c1` [Example 241], the half-maximal effective concentration (EC50) in test [1] came to 6.6 nM; in test [2] it was 38 nM.

Turning to `CCn1cccc(N2C(=O)[C@@H](NC(=O)c3ccc(OC(F)(F)F)cc3)[C@H](c3c(F)cc(OC)cc3F)[C@H]2C)c1=O` [Example 242], the concentration giving a half-maximal response (EC50) in test [1] is 6.7 nM; in test [2], 110 nM.

On to `COc1cc(F)c([C@@H]2CN(c3ccc(CO)n(C)c3=O)C(=O)[C@H]2NC(=O)c2ccc(OC(F)F)cc2)c(F)c1` [Example 243], for which the values for the EC50 in test [1] and in test [2] were 6.7 nM and 170 nM, respectively.

For the compound `COc1cc(F)c([C@@H]2CN(c3cc(C)cn(C)c3=O)C(=O)[C@H]2NC(=O)c2ccc(OC(F)F)cc2)c(F)c1` [Example 244], the EC50 is 6.8 nM in test [1] and 950 nM in test [2].

Consider `COCC(C(=O)N(C)C)n1cccc(N2C[C@@H](c3ccc(Cl)cc3)[C@H](NC(=O)c3ccc(OC(F)(F)F)cc3)C2=O)c1=O` (some centres unmarked) [Example 245], for which the results for the concentration for a half-maximal effect (EC50) in test [1] and in test [2] were 6.8 nM and 1.1 nM, respectively.

Regarding `COc1cc(F)c([C@@H]2CN(c3nc(N4C(=O)CC[C@H]4CO)ccc3F)C(=O)[C@H]2NC(=O)c2ccc(OC(F)(F)F)cc2)c(F)c1` [Example 246], the results for the EC50 in test [1] and in test [2] were 6.9 nM and 280 nM, respectively.

As for `COc1cc(F)c([C@@H]2CN(c3nc(C)ccc3C(F)(F)F)C(=O)[C@H]2NC(=O)c2ccc(OC(F)F)cc2)c(F)c1` [Example 247], the EC50 in test [1] turned out to be 6.9 nM; in test [2], 250 nM.

With `COCC(C(=O)N(C)C)n1ccc(C)c(N2C[C@@H](c3c(F)cc(OC)cc3F)[C@H](NC(=O)c3ccc(OC(F)(F)F)cc3)C2=O)c1=O` (some centres unmarked) [Example 248], the EC50 stood at 6.9 nM in test [1] and 0.7 nM in test [2].

On to `CCn1cccc(N2C[C@@H](c3ccc(OC)cc3F)[C@H](NC(=O)c3ccc(OC(F)(F)F)cc3)C2=O)c1=O` [Example 249], for which the EC50 in test [1] was found to be 6.9 nM; in test [2] it was 13 nM.

Consider `COc1cc(F)c([C@@H]2CN(c3nccc(N4CCN(C)CC4)c3C(F)(F)F)C(=O)[C@H]2NC(=O)c2ccc(Cl)cc2)c(F)c1` [Example 250], for which the results for the EC50 in test [1] and in test [2] were 6.9 nM and 4800 nM, respectively.

For the compound `COc1cc(F)c([C@@H]2CN(c3c(C#N)ccn(C)c3=O)C(=O)[C@H]2NC(=O)c2ccc(Cl)cc2)c(F)c1` [Example 251], the EC50 was 7 nM in test [1] and over 5000 nM in test [2].

Take `COCC(CO)n1cccc(N2C[C@@H](c3ccc(OC)cc3)[C@H](NC(=O)c3ccc(OC(F)F)cc3)C2=O)c1=O` (some centres unmarked) [Example 252]: the values for the EC50 in test [1] and in test [2] were 7 nM and 44 nM, respectively.

In the case of `COc1cc(F)c([C@@H]2CN(c3cccn(CC(C)OC)c3=O)C(=O)[C@H]2NC(=O)c2ccc(OC(F)F)cc2)c(F)c1` (some centres unmarked) [Example 253], the EC50 is 7 nM in test [1] and 11 nM in test [2].

Consider `COc1cc(F)c([C@@H]2CN(c3cccn(CC(C)(CO)CO)c3=O)C(=O)[C@H]2NC(=O)c2ccc(OC(F)(F)F)cc2)c(F)c1` [Example 254], for which the results for the EC50 in test [1] and in test [2] were 7 nM and 52 nM, respectively.

Consider `CCn1cccc(N2C(=O)[C@@H](NC(=O)c3ccc(OC(F)F)cc3)[C@H](c3c(F)cc(OC)cc3F)[C@H]2C)c1=O` [Example 255], for which the EC50 was found to be 7 nM in test [1] and 52 nM in test [2].

With `COc1cc(F)c([C@@H]2CN(c3nc(N4C[C@H]5C[C@@H]4CO5)ccc3F)C(=O)[C@H]2NC(=O)c2ccc(OC(F)F)cc2)c(F)c1` [Example 256], the EC50 was found to be 7.2 nM in test [1] and 530 nM in test [2].

Regarding `COCC(C(=O)N(C)C)n1ccc(C)c(N2C[C@@H](c3c(F)cc(OC)cc3F)[C@H](NC(=O)c3ccc(OC(F)F)cc3)C2=O)c1=O` (some centres unmarked) [Example 257], the figures for the EC50 in test [1] and in test [2] were 7.3 nM and 1.6 nM, respectively.

As to `COc1cc(F)c([C@@H]2CN(c3cccn(CCF)c3=O)C(=O)[C@H]2NC(=O)c2ccc(OC(F)F)cc2)c(F)c1` [Example 258], the EC50 in test [1] was found to be 7.4 nM; in test [2], 83 nM.

In the case of `COc1cc(F)c([C@@H]2CN(c3nc(N4C[C@@H]5C[C@H]4CN5C)ccc3OC)C(=O)[C@H]2NC(=O)c2ccc(Cl)cc2)c(F)c1` [Example 259], the results for the EC50 in test [1] and in test [2] were 7.4 nM and 580 nM, respectively.

Consider `COCCn1ccc(C)c(N2C[C@@H](c3ccc(OC)cc3)[C@H](NC(=O)c3ccc(OC(F)F)cc3)C2=O)c1=O` [Example 260], for which the EC50 amounted to 7.5 nM in test [1] and 1.2 nM in test [2].

In the case of `CNc1ccnc(N2C[C@@H](c3c(F)cc(OC)cc3F)[C@H](NC(=O)c3ccc(OC(F)F)cc3)C2=O)c1C(F)(F)F` [Example 261], the results for the EC50 in test [1] and in test [2] were 7.5 nM and 940 nM, respectively.

Consider `COc1cc(F)c([C@@H]2CN(c3c(C)ccn(CCO)c3=O)C(=O)[C@H]2NC(=O)c2ccc(OC(F)F)cc2)c(F)c1` [Example 262], for which the EC50 in test [1] worked out at 7.5 nM; in test [2] it was 18 nM.

As for `COc1cc(F)c([C@@H]2CN(c3nccc(NC4CCOC4)c3C(F)(F)F)C(=O)[C@H]2NC(=O)c2ccc(Cl)cc2)c(F)c1` (some centres unmarked) [Example 263], the EC50 in test [1] turned out to be 7.5 nM; in test [2], 1300 nM.
